The record followed here is ChEMBL document CHEMBL1126497, “A new type of cytotoxic annonaceous acetogenin: Giganin from goniothalamus giganteus” (1993).

What all share (type): functional
The subject of one assay is A549. In words: The compound was tested for cytotoxicity against A-549 cell in human lung carcinoma. The conditions noted are these: read-out: ED50 (the source's name).
Assay [1] in a line: The compound was tested for cytotoxicity against BST cell in brine shrimp. To be noted: Artemia.
A further assay deals with HT-29. Put plainly: The compound was tested for cytotoxicity against […] in human colon adenocarcinoma. To be noted: read-out: ED50 (the source's name).
The test system of the next assay is MCF7. In words: The compound was tested for cytotoxicity against MCF-7 cell in human breast carcinoma. To be noted: read-out: ED50 (the source's name).

Values after ≈ are worked out from the molar mass of the structure shown.

For `CCCCCCCCCCCCCCC(O)C(O)CC/C=C\CCC(O)CCCCCC(O)CC1=CC(C)OC1=O` (centres undefined), the figures for the EC50 in the assay on A549, in the assay with HT-29 and with MCF7 were 0.0188 µg/mL (≈ 0.0324 µM), 0.00688 µg/mL (≈ 0.0118 µM) and 1.03 µg/mL (≈ 1.77 µM), respectively. In addition, in assay [1], the LC50 (as a rule, the concentration lethal to half of the exposed cells or organisms) was 890 µg/mL (≈ 1530 µM).
